Measured values as given in patent US10201558B2, “Compositions of selenoorganic compounds and methods of use thereof” (Alltech, Inc., priority 2014, dated 2019).
Entries after “also recorded” stand apart in the source; their conditions may differ.

Assays:
Format in all cases: cell-based, human
UCP2 = assay: QRT-PCR of UCP2 mRNA in IMR-32 cells; details: 150 ppb, 6 hours
Method: (§1) Human IMR-32 cells were seeded on gelatinized 6-well (6.5×10^5 cells/well) or 24-well (1.3×10^5 cells/well) plates. Cells were treated with control (0 ppb) or various compounds for 6 hours or 24 hours. Total RNA from these cells was isolated using Trizol (Invitrogen) according to the manufacturer's protocol, and then incubated with DNase I to remove any potential contaminated genomic DNA. Then RNA samples were subjected to real-time PCR analysis using the Applied-Bioscience's RT kit and predesigned Taqman probes (Invitrogen), as described previously (Lan et al EMBO J 2003). The mRNA levels of UCP1, UCP2, UCP3, SLC25A27 (UCP4), SLC25A14 (UCP5), PSEN1, Nicastrin, GSK3B, MAPK11-14, PPARG, APOE, RCAN1, RCAN1.1, G6PC, INSR, IGF1R and FOXO4 were measured. Three to six samples were analyzed in each treatment group. Data were normalized by Actin B (ACTB) or Glyceraldehyde Phosphate Dehydrogenase (GAPDH) mRNA levels in each sample and are presented as mean±SEM of 3-6 samples.

UCP3 = assay: QRT-PCR of UCP3 mRNA in IMR-32 cells; details: 150 ppb, 6 hours
Method: as §1

PGC-1α = assay: Western blot of PGC-1α protein in IMR-32 cells; details: 150 ppb, 24 hours
Method: (§2) IMR-32 cells were seeded on 6-well plates and then treated with control and various compounds for 6 hours and 24 hours, as described above. After treatments, cells were rinsed with ice-cold PBS and lysed in ice-cold RIPA buffer containing complete proteinase and phosphatase inhibitors (Thermo-Fisher Scientific, Waltham, Mass.) on ice for 30 min Cell lysates were collected using a cell scraper and transfer pipette and then centrifuged at 12000×g for 30 min at 4° C. to remove the DNA pellet and obtain the protein extract. Protein levels in the supernatant of these cell lysates were determined using the Pierce Micro-BCA protein assay kit (Thermo Scientific-Piece Biotechnology, Rockford, Ill.) according to the manufacturer's protocol […]
(§3) Positive signals on the membrane blots were detected using Amersham's enhanced chemiluminescence (ECL) Western Blotting Prime Detection reagents (GE healthcare Lifescience, Pittsburgh, Pa.). Images of these luminescence signals on the membrane blots were captured using the LI-COR Odyssey Fc Image system (Lincoln, Nebr.). […] Protein band densities in the Western blots were determined using the Li—COR Image studio software or NIH ImageJ software, and then normalized by ACTB protein level in each sample. […]

RCAN1.1 = assay: Western blot of RCAN1 (RCAN1.1) protein in IMR-32 cells; details: 150 ppb, 24 hours
Method: as §2, §3
The ability of selenium compounds to regulate RCAN1 expression in IMR-32 cells was also assessed. […]

pAKT = assay: Western blot of pAKT in IMR-32 cells; details: 6 hours and 24 hours
Method: as §2, §3

GSK3B = assay: QRT-PCR of GSK3B mRNA in IMR-32 cells (normal, control KD, FOXO4 KD); details: for GSK3B mRNA levels: IMR-32 cells
Method: (§4) IMR-32 cells were cultured on 12-well plates for 24 hours and then incubated with FOXO4 siRNA lentiviruses (SC-29650V, Santa Cruz) or control siRNA lentiviruses (sc-108080, Santa Cruz) in the presence of Polybrene (5 μg/ml, Santa Cruz) for 24 hours according to the manufacturer's protocol. These lentiviral siRNA-transfected cells were amplified in normal media for 3 days and then incubated with puromycin for 9-14 days to obtain the stable Control KD (stably transfected with the control siRNAs) and FOXO4KD (stably transfected with Foxo4 siRNAs) cells. These control and Foxo4 KD cells were subjected to cell survival, mitochondrial potential and RNA analysis.
as §1
(§5) Expression of genes such as Nicastrin and GSK3B (FIGS. 3A, 3C, 3G-3I, 4A, 4F-4H) which are associated with early-onset AD pathogenesis was attenuated by Compound C. […] Therefore, GSK3B and Nicastrin likely are two direct downstream target genes of FOXO4 in neuronal cells in humans.

p38 = assay: Western blot of total p38 protein in IMR-32 cells; details: 150 ppb, 24 hours
Method: as §2, §3

NICASTRIN = assay: QRT-PCR of NICASTRIN mRNA in IMR-32 cells (normal, control KD, FOXO4 KD)
Method: as §4, §1
RNA samples were extracted, purified, and subjected to real-time PCR analysis using Applied-Bioscience's RT kit and Taqman probes (Invitrogen) as described previously in Example 4. Protein samples were also prepared from cell lysates and western blot analysis was performed as previously described in Example 4. Data are presented as mean±SEM of 3 protein samples and 4 RNA samples per group. The relative mRNA and protein expression levels of PSEN1 and NICASTRIN, were measured. All primary antibodies were purchased from Cell Signaling Inc., Beverly, Mass.
as §5

[1] = FOXO4KD cells, 75 ppb and 150 ppb, 24 hours
[2] = control KD cells, 75 ppb and 150 ppb, 24 hours

C[Se]C[C@H]1O[C@@H](n2cnc3c(N)ncnc32)C(O)C1O (stereo in doubt) [Compound C, 5′-deoxy-5′-methylselenoadenosine]
UCP2 mRNA expression (UCP2): significant decrease; also recorded: inhibited | UCP3 mRNA expression (UCP3): significant decrease; also recorded: inhibited | PGC-1α protein levels (normalized by ACTB) (PGC-1α): increase; also recorded: elevated | RCAN1.1 protein levels (RCAN1.1): decrease | pAKT protein levels (pAKT): not visibly decreased | GSK3B mRNA expression (GSK3B; [1]): not in FOXO4KD cells | GSK3B mRNA levels (GSK3B; 75 ppb and 150 ppb, 24 hours): significantly downregulated | GSK3B mRNA levels (GSK3B; 150 ppb, 6 hours): significantly decreased | GSK3B mRNA expression (GSK3B; [2]): attenuated | Total p38 protein levels (p38): visibly decreased; also recorded: statistically significant decrease | NICASTRIN mRNA expression (NICASTRIN; [1]): not significantly altered | NICASTRIN mRNA expression, dose-response study (NICASTRIN; IMR-32 cells, 150 ppb, 24 hours): significantly inhibit | NICASTRIN mRNA expression (NICASTRIN; IMR-32 cells, 6 hours): trend towards reduced | NICASTRIN mRNA expression (NICASTRIN; IMR-32 cells, 24 hours): significant decrease | NICASTRIN mRNA expression (NICASTRIN; [2]): inhibited

C[Se]C[C@H](NC(=O)CC[C@H](N)C(=O)O)C(=O)O [Compound E, γ-L-glutamyl-Se-methyl-L-selenocysteine]
UCP2 mRNA expression (UCP2): did not have any effect | UCP3 mRNA expression (UCP3): did not have any effect | PGC-1α protein levels (normalized by ACTB) (PGC-1α): increase | RCAN1.1 protein levels (RCAN1.1): not Compound E | pAKT protein levels (pAKT): not visibly decreased | GSK3B mRNA levels (GSK3B; 150 ppb, 6 hours): did not significantly inhibit | Total p38 protein levels (p38): not observed; also recorded: not Compound E | NICASTRIN mRNA expression (NICASTRIN; IMR-32 cells, 24 hours): stimulated
